Assay results as given in patent US20220288154A1, “GNRH ANTAGONISTS FOR THE TREATMENT OF ESTROGEN-DEPENDENT DISORDERS” (ObsEva S.A., priority 2019, published 2022).
Marks after values point to notes of the source that are not given here.

Legend:
[1] = system: human female patients diagnosed as having uterine fibroids; experiment: PRIMROSE 2 Phase 3 placebo-controlled trial in uterine fibroids; type: in vivo; conditions: for patients achieving menstrual blood loss ≤80 mL and ≥50% reduction from baseline: 52 weeks
Experimental: (§1) The PRIMROSE 1 study, conducted in the United States, enrolled 526 women. The PRIMROSE 2 study, conducted in the United States and Europe, enrolled 535 women. Patients were randomized to one of several cohorts: […] […] Pain levels were measured using a Verbal Rating Score (VRS), as described herein. Patients were also assessed to determine the proportion that reported an improvement in quality of life using the Uterine Fibroids Symptoms and Health-Related Quality of Life questionnaire.

[2] = target: T1, human GnRH receptor (Homo sapiens, UniProt P30968); experiment: Affinity for human GnRH receptor; type: binding
T1 sequence (P30968 1-328): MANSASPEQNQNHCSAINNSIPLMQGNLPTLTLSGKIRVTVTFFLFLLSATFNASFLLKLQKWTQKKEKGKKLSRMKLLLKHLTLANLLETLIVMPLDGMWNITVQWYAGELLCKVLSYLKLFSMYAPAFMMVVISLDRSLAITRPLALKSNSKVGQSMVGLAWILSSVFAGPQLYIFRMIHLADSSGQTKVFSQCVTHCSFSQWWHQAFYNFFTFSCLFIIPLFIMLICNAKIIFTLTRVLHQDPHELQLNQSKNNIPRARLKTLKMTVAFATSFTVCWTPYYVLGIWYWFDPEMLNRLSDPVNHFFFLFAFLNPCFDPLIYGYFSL

[3] = system: human female patients diagnosed as having uterine fibroids; experiment: PRIMROSE 1 Phase 3 placebo-controlled trial in uterine fibroids; type: in vivo
Experimental: as §1

[4] = PRIMROSE 1 and PRIMROSE 2: lumbar spine bone mineral density; type: in vivo, human; conditions: 100 mg/day or 200 mg/day + ABT; 24 and 52 weeks
Experimental: To evaluate the safety of compound (VI), patients' bone mineral density levels were measured at baseline and at various timepoints during the studies.

[5] = in vivo
Experimental: BMD of the femoral neck, total hip and lumbar spine was assessed by DXA at baseline and after 12 and 24 weeks of treatment. Reading of DXA scans and monitoring of scan quality, including cross-calibration between sites, was centralized.
All bone mineral density measurements shown below were obtained by assessing bone mineral density at each patient's spine.

[6] = system: human female patients diagnosed as having endometriosis; experiment: Phase 2b placebo-controlled trial in endometriosis: endometriosis-associated pain (daily electronic diary); type: in vivo; conditions: for Dyspareunia Mean (SD) Change from baseline (CFB): 0-3 VRS score; for Dyschezia Mean (SD) CFB: 0-10 NRS score; for Overall Pelvic Pain Responder Rate (VRS score reduction of >30% from baseline): after 52 weeks
Experimental: This example describes the results of a Phase 2b, double-blind, randomized, placebo-controlled, multicenter, human clinical trial undertaken to evaluate the efficacy of a GnRH antagonist represented by formula (VI) in a series of patients suffering from an estrogen-dependent disease. In this trial, a series of human female patients diagnosed as having endometriosis were administered the choline salt of 3-[2-fluoro-5-(2,3-difluoro-6-methoxybenzyloxy)4-methoxyphenyl]-2,4-dioxo-1,2,3,4-tetrahydrothieno[3,4d]pyrimidine-5-carboxylic acid periodically over the course of a 52-week treatment period. After 52 weeks of treatment, the patients were monitored for severity of disease symptoms and bone mineral density.
Participants were women aged 18 to 45 years with surgically confirmed endometriosis and moderate to severe EAP. Women with a history of osteoporosis or other metabolic bone disease were excluded. Certain subjects completing an initial 24-week treatment period were invited to continue in a treatment extension phase, resulting in a total of up to 52 weeks of treatment. Subjects that completed 52 weeks of treatment constituted the treatment extension analysis set (TEAS) of patients.
Patients were randomized to either (i) 50 mg/day, 75, mg/day, 100 mg/day, or 200 mg/day of 3-[2-fluoro-5-(2,3-difluoro-6-methoxybenzyloxy)4-methoxyphenyl]-2,4-dioxo-1,2,3,4-tetrahydrothieno[3,4d]pyrimidine-5-carboxylic acid, administered as a choline salt, or (ii) matching placebo. Patients assigned to the placebo cohort were switched to 100 mg/day of 3-[2-fluoro-5-(2,3-difluoro-6-methoxybenzyloxy)4-methoxyphenyl]-2,4-dioxo-1,2,3,4-tetrahydrothieno[3,4d]pyrimidine-5-carboxylic acid at week 12.
Patients that received 75 mg/day of compound (VI) were divided into two groups: those that received a fixed dose (FD) of compound (VI) at 75 mg/day throughout the 52-week treatment period, and those that received a titrated dose (TD) of 75 mg/day of compound (VI) for the first 12 weeks of the treatment period, followed by a daily dose of either 50 mg, 75 mg, or 100 mg of the compound depending on each patient's serum E2 concentration after 4 weeks or 8 weeks of treatment. Dosages from week 12 onward for patients in the 75 mg/day TD cohort were determined according to the following schedule:
Patients that were treated with 200 mg/day of the compound at the 24-week timepoint in the treatment period were switched to 100 mg/day for the final […] of the study.
EAP was assessed using questionnaires in a daily electronic diary. Mean 28-day scores for pelvic pain were calculated at each month up to 12 months and compared to baseline. Efficacy was assessed as the proportion of patients who had at least 30% reduction in OPP at 12 weeks. DYS, NMPP, dyspareunia, and dyschezia were also assessed. […]

[7] = 200 mg/day to week 24, then 100 mg/day, 52 weeks

## COc1cc(F)c(-n2c(=O)[nH]c3csc(C(=O)O)c3c2=O)cc1OCc1c(OC)ccc(F)c1F [Compound (VI), 3-[2-fluoro-5-(2,3-difluoro-6-methoxybenzyloxy)4-methoxyphenyl]-2,4-dioxo-1,2,3,4-tetrahydrothieno[3,4d]pyrimidine-5-carboxylic acid]
[1]; 100 mg/day
  p value: Improvement in quality of life, Change from baseline in QoL symptom severity score (LS mean): p = 0.004
[1]; 100 mg/day without ABT
  patients achieving menstrual blood loss ≤80 mL and ≥50% reduction from baseline: 53.2%
[1]; 200 mg/day + ABT
  patients achieving menstrual blood loss ≤80 mL and ≥50% reduction from baseline: 91.6%
[1]; 200 mg/day + once-daily ABT
  p value: Improvement in quality of life, Change from baseline in QoL symptom severity score (LS mean): p < 0.001
[2]
  affinity for human GnRH receptor: 27.4 nM
[3]; 100 mg/day
  p value: Improvement in quality of life, Change from baseline in QoL symptom severity score (LS mean): p = 0.002
[3]; 100 mg/day without ABT, 24 weeks
  patients achieving menstrual blood loss ≤80 mL and ≥50% reduction from baseline: 56.4%
[3]; 200 mg/day + ABT (1.0 mg E2 + 0.5 mg NETA), 24 weeks
  patients achieving menstrual blood loss ≤80 mL and 50% reduction from baseline: 75.5%
[3]; 200 mg/day + once-daily ABT
  p value: Improvement in quality of life, Change from baseline in QoL symptom severity score (LS mean): p < 0.001
[4]
  effect on lumbar spine bone mineral density: does not induce a substantial decrease in bone mineral density

## COc1cc(F)c(-n2c(=O)[nH]c3csc(C(=O)O)c3c2=O)cc1OCc1c(OC)ccc(F)c1F [GnRH antagonist, 3-[2-fluoro-5-(2,3-difluoro-6-methoxybenzyloxy)4-methoxyphenyl]-2,4-dioxo-1,2,3,4-tetrahydrothieno[3,4d]pyrimidine-5-carboxylic acid]
[5]
  average bone mineral density losses: less than 5%
[6]; 50 mg/day, 12 weeks
  Dyspareunia Mean (SD) Change from baseline (CFB): −0.6 (0.7)
  Dyschezia Mean (SD) CFB: −1.4 (1.7)
  % responders DYS (dysmenorrhea): 43.3%
  % responders NMPP (non-menstrual pelvic pain): 46.2%
  % responders OPP (overall pelvic pain): 49.4%
[6]; 50 mg/day, 24 weeks
  Dyspareunia Mean (SD) Change from baseline (CFB): −0.7 (0.8)
  Dyschezia Mean (SD) CFB: −1.5 (2.1)
  % responders DYS (dysmenorrhea): 47.5%
  % responders NMPP (non-menstrual pelvic pain): 50%
  % responders OPP (overall pelvic pain): 52.5%
[6]; 50 mg/day, 52 weeks
  Dyspareunia Mean (SD) Change from baseline (CFB): −0.5 (1.1)
  Dyschezia Mean (SD) CFB: −2.3 (1.8)
  % responders DYS (dysmenorrhea): 50%
  % responders NMPP (non-menstrual pelvic pain): 66.7%
  % responders OPP (overall pelvic pain): 66.7%
[6]; 75 mg/day, 12 weeks
  Dyspareunia Mean (SD) Change from baseline (CFB): −0.7 (0.8)
  Dyschezia Mean (SD) CFB: −2.1 (2.5)*
  % responders DYS (dysmenorrhea): 68.2* %
  % responders NMPP (non-menstrual pelvic pain): 58.5* %
  % responders OPP (overall pelvic pain): 61.5* %
[6]; 75 mg/day, 24 weeks
  Dyspareunia Mean (SD) Change from baseline (CFB): −0.7 (0.8)
  Dyschezia Mean (SD) CFB: −2.2 (2.5)
  % responders DYS (dysmenorrhea): 58.3%
  % responders NMPP (non-menstrual pelvic pain): 72.9%
  % responders OPP (overall pelvic pain): 70.8%
[6]; 75 mg/day, 52 weeks
  Dyspareunia Mean (SD) Change from baseline (CFB): −0.9 (0.8)
  Dyschezia Mean (SD) CFB: −2.1 (2.9)
  % responders DYS (dysmenorrhea): 69.2%
  % responders NMPP (non-menstrual pelvic pain): 69.2%
  % responders OPP (overall pelvic pain): 69.2%
[6]; 100 mg/day, 12 weeks
  Dyspareunia Mean (SD) Change from baseline (CFB): −0.7 (0.9)
  Dyschezia Mean (SD) CFB: −2.0 (1.8)*
  % responders DYS (dysmenorrhea): 68.6* %
  % responders NMPP (non-menstrual pelvic pain): 61.5* %
  % responders OPP (overall pelvic pain): 56.4* %
[6]; 100 mg/day, 24 weeks
  Dyspareunia Mean (SD) Change from baseline (CFB): −0.6 (0.8)
  Dyschezia Mean (SD) CFB: −2.0 (2.3)
  % responders DYS (dysmenorrhea): 82.1%
  % responders NMPP (non-menstrual pelvic pain): 64.1%
  % responders OPP (overall pelvic pain): 66.7%
[6]; 100 mg/day, 52 weeks
  Dyspareunia Mean (SD) Change from baseline (CFB): −0.7 (1.1)
  Dyschezia Mean (SD) CFB: −2.9 (3.1)
  % responders DYS (dysmenorrhea): 69.2%
  % responders NMPP (non-menstrual pelvic pain): 53.8%
  % responders OPP (overall pelvic pain): 53.8%
[6]; [7]
  Dyspareunia Mean (SD) Change from baseline (CFB): −0.9 (0.9)
  Dyschezia Mean (SD) CFB: −2.6 (2.7)
  % responders DYS (dysmenorrhea): 64.7%
  % responders NMPP (non-menstrual pelvic pain): 76.5%
  % responders OPP (overall pelvic pain): 82.4%
[6]; 200 mg/day, 12 weeks
  Dyspareunia Mean (SD) Change from baseline (CFB): −0.8 (1.1)*
  Dyschezia Mean (SD) CFB: −1.7 (2.3)*
  % responders DYS (dysmenorrhea): 78.9* %
  % responders NMPP (non-menstrual pelvic pain): 47.7%
  % responders OPP (overall pelvic pain): 56.3* %
[6]; 200 mg/day, 24 weeks
  Dyspareunia Mean (SD) Change from baseline (CFB): −1.0 (1.0)
  Dyschezia Mean (SD) CFB: −2.5 (2.6)
  % responders DYS (dysmenorrhea): 84.1%
  % responders NMPP (non-menstrual pelvic pain): 72.7%
  % responders OPP (overall pelvic pain): 77.3%
[6]; 75 mg once daily
  Overall Pelvic Pain Responder Rate (VRS score reduction of >30% from baseline): 69.2%
[6]; 200 mg once daily
  Overall Pelvic Pain Responder Rate (VRS score reduction of >30% from baseline): 82.4%
